# Measured values reported in ChEMBL document CHEMBL5346964, “Discovery of LNP1892: A Precision Calcimimetic for the Treatment of Secondary Hyperparathyroidism” (J Med Chem, 2023).
# Legend:
# [1] = biological target: T1, Extracellular calcium-sensing receptor (Homo sapiens, UniProt P41180); test: Agonist activity at human CaSR expresssed in HEK293 cells in presence of glucose by Fluo4NW dye based FLIPR assay; assay type: functional, cell-based; conditions: read-out: EC50
# T1 sequence (P41180 whole entry): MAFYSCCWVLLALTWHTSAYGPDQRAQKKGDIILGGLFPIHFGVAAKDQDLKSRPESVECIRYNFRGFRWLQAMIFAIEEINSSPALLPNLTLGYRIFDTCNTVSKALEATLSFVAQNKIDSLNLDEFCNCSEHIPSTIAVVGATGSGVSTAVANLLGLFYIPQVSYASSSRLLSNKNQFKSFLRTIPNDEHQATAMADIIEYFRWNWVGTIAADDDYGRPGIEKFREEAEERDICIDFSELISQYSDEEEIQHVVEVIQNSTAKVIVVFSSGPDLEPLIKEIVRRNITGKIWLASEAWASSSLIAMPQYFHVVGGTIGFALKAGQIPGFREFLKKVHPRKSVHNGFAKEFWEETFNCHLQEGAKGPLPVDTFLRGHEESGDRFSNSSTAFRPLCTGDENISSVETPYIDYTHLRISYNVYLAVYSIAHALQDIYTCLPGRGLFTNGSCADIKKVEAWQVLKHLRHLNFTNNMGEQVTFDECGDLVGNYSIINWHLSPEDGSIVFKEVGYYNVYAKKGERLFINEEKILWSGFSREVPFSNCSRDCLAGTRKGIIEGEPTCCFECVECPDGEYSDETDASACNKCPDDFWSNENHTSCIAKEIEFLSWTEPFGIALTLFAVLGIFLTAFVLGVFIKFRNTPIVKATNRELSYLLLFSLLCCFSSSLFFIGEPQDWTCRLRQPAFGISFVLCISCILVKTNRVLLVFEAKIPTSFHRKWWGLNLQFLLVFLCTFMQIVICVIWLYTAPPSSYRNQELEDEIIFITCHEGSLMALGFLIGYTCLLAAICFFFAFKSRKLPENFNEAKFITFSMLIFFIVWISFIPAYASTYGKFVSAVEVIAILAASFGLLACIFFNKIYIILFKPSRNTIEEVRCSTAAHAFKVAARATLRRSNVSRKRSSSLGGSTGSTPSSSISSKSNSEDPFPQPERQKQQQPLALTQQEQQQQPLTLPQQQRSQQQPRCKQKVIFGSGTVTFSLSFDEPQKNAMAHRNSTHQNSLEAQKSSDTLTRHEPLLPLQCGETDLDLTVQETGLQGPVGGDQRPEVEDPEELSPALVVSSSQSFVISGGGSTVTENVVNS
# CYP2D6 = CYP2D6 (Homo sapiens, UniProt P10635); test: Inhibition of CYP2D6 in human liver microsomes at 1 uM preincubated for 5 mins followed by NADPH addition by LC-MS/MS analysis relative to control; assay type: ADME, Microsome
# [2] = AUClast in Sprague-Dawley rat at 1 mg/kg, iv measured upto 24 hrs by LC-MS/MS analysis; assay type: ADME, organism-based; set-up: dose 1 mg/kg, time < 24 hrs, route iv; conditions: in vivo
# [3] = Cmax in Sprague-Dawley rat at 10 mg/kg, po administered as suspension measured upto 24 hrs by LC-MS/MS analysis; assay type: ADME, organism-based; set-up: dose 10 mg/kg, time < 24 hrs, route po; conditions: in vivo
# [4] = Oral bioavailability in Sprague-Dawley rat at 10 mg/kg administered as suspension measured upto 24 hrs by LC-MS/MS analysis; assay type: ADME, organism-based; conditions: in vivo
# [5] = Effect on parathyroid hormone in overnight fasted Sprague-Dawley rat assessed as reduction in plasma PTH level at 10 mg/kg, po measured after 2 hrs of post treatment by sandwich ELISA analysis; assay type: functional; set-up: scale not given: the % may be the effect or the level left
# [6] = Effect on parathyroid hormone in overnight fasted Sprague-Dawley rat assessed as reduction in plasma PTH level at 3 mg/kg, po measured after 4 hrs of post treatment by sandwich ELISA analysis; assay type: functional; set-up: scale not given: the % may be the effect or the level left
# [7] = Effect on parathyroid hormone in overnight fasted Sprague-Dawley rat assessed as reduction in plasma PTH level at 3 mg/kg, po measured after 2 hrs of post treatment by sandwich ELISA analysis; assay type: functional; set-up: scale not given: the % may be the effect or the level left
# Rattus norvegicus [8] = test: Acute effect on parathyroid hormone in overnight fasted adenine diet-induced chronic kidney disease Wistar rat model assessed as reduction in plasma PTH level at 10 mg/kg, po measured after 2 hrs of post treatment by sandwich ELISA analysis; assay type: functional; set-up: scale not given: the % may be the effect or the level left
# Rattus norvegicus [9] = test: Subchronic effect on parathyroid hormone in overnight fasted adenine diet-induced chronic kidney disease Wistar rat model plasma assessed as reduction in plasma PTH level at 1 mg/kg, po qd measured after 27 days of post treatment by sandwich ELISA analysis; assay type: functional; set-up: scale not given: the % may be the effect or the level left; conditions: time 27 day
# [10] = Cmax in Sprague-Dawley rat at 10 mg/kg; assay type: ADME, organism-based; set-up: dose 10 mg/kg; conditions: in vivo
# [11] = AUC(0 to 24 hrs) in Sprague-Dawley rat at 10 mg/kg; assay type: ADME, organism-based; set-up: dose 10 mg/kg; conditions: in vivo
# [12] = Tmax in Sprague-Dawley rat at 30 mg/kg; assay type: ADME, organism-based; conditions: in vivo
# [13] = Metabolic stability in mouse liver S9 fraction measured upto 60 mins by LC-MS/MS method; assay type: ADME, subcellular; conditions: read-out: Stability
# [14] = Stability in rat plasma measured up to 4 hrs by LC-MS/MS method; assay type: ADME, cell-free; conditions: read-out: Stability
# [15] = Protein binding in rat plasma incubated for 16 hrs under shaking condition by rapid equilibrium dialysis based LC-MS/MS method; assay type: ADME, cell-free; conditions: read-out: PPB
# [16] = Protein binding in dog plasma incubated for 16 hrs under shaking condition by rapid equilibrium dialysis based LC-MS/MS method; assay type: ADME, cell-free, Canis lupus familiaris; conditions: read-out: PPB
# CYP2C9 = CYP2C9 (Homo sapiens, UniProt P11712); test: Inhibition of CYP2C9 in human liver microsomes at 10 uM preincubated for 5 mins followed by NADPH addition by LC-MS/MS analysis relative to control; assay type: ADME, Microsome
# CYP3A4 = CYP3A4 (Homo sapiens, UniProt P08684); test: Inhibition of CYP3A4 in human liver microsomes at 10 uM preincubated for 5 mins followed by NADPH addition by LC-MS/MS analysis relative to control; assay type: ADME, Microsome
# [17] = Kinetic solubility of compound upto 500 uM at pH 7.4 measured after 16 hrs under shaking condition by UV-visible method; assay type: physicochemical; conditions: buffer, read-out: Kinetic_solubility
# [18] = Kinetic solubility of compound upto 500 uM at pH 9 measured after 16 hrs under shaking condition by UV-visible method; assay type: physicochemical; conditions: buffer, read-out: Kinetic_solubility
# [19] = Chemical stability of the compound at pH 4 measured after 0.5 to 4 hrs; assay type: physicochemical; conditions: buffer, time 0.5-4 hrs
# [20] = Chemical stability of the compound at pH 7.4 measured after 0.5 to 4 hrs; assay type: physicochemical; conditions: buffer, time 0.5-4 hrs
# [21] = Half life in Sprague-Dawley rat at 1 mg/kg, iv measured upto 24 hrs by LC/MS-MS analysis; assay type: ADME, organism-based; conditions: in vivo
# [22] = Tmax in Beagle dog at 5 mg/kg, po measured upto 24 hrs by LC/MS-MS analysis; assay type: ADME, organism-based, Canis lupus familiaris; conditions: in vivo
# [23] = Tmax in cynomolgus monkey at 5 mg/kg, po measured upto 24 hrs by LC/MS-MS analysis; assay type: ADME, organism-based, Macaca fascicularis; conditions: in vivo
# [24] = AUC in cynomolgus monkey at 5 mg/kg, po measured upto 24 hrs by LC/MS-MS analysis; assay type: ADME, organism-based, Macaca fascicularis; set-up: dose 5 mg/kg, time < 24 hrs, route po; conditions: in vivo
# [25] = Ratio of drug concentration in blood to plasma in rat; assay type: ADME, cell-free
# [26] = Cmax in rat at 50 mg/kg per day, po via gavage administered for 2 weeks; assay type: ADME, organism-based; set-up: dose 50 mg/kg, time 2 weeks, route po; conditions: in vivo
# [27] = Toxicity in rat assessed as maximum tolerated dose; conditions: in vivo
# Sequence of CYP2D6 (P10635 whole entry): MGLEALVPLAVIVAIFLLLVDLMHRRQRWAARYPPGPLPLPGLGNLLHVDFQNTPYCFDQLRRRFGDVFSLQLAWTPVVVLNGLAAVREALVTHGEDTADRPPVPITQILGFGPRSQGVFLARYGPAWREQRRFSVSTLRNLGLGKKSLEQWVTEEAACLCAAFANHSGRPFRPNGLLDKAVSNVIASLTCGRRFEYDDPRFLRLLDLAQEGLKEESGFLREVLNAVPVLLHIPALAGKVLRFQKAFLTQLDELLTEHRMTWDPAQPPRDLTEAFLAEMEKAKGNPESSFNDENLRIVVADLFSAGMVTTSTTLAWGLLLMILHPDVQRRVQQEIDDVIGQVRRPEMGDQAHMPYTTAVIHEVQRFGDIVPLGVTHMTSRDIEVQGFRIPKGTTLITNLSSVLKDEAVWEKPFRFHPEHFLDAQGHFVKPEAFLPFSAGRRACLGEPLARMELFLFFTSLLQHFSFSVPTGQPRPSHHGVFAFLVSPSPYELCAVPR
# Sequence of CYP3A4 (P08684 whole entry): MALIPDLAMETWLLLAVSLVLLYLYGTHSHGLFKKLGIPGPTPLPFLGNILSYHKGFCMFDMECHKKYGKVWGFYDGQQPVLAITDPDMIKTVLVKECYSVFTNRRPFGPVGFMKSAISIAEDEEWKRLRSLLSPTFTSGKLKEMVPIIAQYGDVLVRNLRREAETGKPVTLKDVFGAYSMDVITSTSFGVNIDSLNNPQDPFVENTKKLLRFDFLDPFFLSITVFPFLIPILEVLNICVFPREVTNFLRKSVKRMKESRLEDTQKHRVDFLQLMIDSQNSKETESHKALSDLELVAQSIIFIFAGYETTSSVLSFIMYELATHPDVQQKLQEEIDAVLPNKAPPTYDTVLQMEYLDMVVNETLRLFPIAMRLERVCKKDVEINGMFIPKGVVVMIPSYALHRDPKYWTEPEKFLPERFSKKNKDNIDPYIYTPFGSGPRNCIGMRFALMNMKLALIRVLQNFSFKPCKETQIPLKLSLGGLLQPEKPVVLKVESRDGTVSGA
# Sequence of CYP2C9 (P11712 whole entry): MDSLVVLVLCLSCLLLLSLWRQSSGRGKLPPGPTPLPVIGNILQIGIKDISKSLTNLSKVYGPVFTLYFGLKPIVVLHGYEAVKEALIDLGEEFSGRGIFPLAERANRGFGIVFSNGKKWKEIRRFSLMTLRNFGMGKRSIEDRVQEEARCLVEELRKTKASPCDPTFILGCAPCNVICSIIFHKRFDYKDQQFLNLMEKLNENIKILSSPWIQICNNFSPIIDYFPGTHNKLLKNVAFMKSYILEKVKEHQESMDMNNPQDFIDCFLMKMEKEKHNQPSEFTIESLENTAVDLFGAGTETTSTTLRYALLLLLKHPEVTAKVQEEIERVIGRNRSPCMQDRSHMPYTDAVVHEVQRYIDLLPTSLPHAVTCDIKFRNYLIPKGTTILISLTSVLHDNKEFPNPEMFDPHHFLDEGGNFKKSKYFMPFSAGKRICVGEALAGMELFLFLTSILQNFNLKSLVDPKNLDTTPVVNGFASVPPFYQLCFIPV
structure (smiles),measurement,setting,value
Cc1ccc([C@@H]2C[C@H](CN[C@H](C)c3cccc4ccccc34)Oc3ccccc32)cc1C(=O)O.Cl,EC50,[1],6.4 nM
same,inhibition at 1 µM,CYP2D6,4%
same,AUC(0-t) at 24 h,[2],7 µM·h
same,Cmax,[3],4 µM
same,bioavailability,[4],33%
same,Activity,[5],99%
same,Activity,[6],74%
same,Activity,[7],100%
same,Activity,Rattus norvegicus [8],89%
same,Activity,Rattus norvegicus [9],83%
same,Cmax,[10],4 µM
same,AUC(0-t),[11],23 µM·h
same,Tmax,[12],0.5 h
same,remaining at 1 h,[13],> 80%
same,remaining at 4 h,[14],> 80%
same,fraction unbound at 16 h,[15],< 0.01
same,fraction unbound at 16 h,[16],< 0.01
same,inhibition at 10 µM,CYP2C9,0%
same,inhibition at 10 µM,CYP3A4,0%
same,"solubility kinetic at 16 h, 500 µM",[17],> 200 µM
same,"solubility kinetic at 16 h, 500 µM",[18],> 200 µM
same,Stability,[19],Stable
same,Stability,[20],Stable
same,half-life,[21],4 h
same,Tmax,[22],0.7 h
same,Tmax,[23],1.7 h
same,AUC at 24 h,[24],1.3 µM·h
same,blood plasma ratio,[25],0.64
same,Cmax,[26],7170 ng/mL
same,MTD,[27],1000 mg/kg
